Holding throughout (test): NCI-60 cell line screen, 48 h
Assay [1] deals with NCI-H460 lung.
The subject of assay [2] is 786-0 renal.
For assay [3], the system named is NCI-H226 lung.
Assay [4] deals with MOLT-4 leukemia.
Assay [5] deals with MDA-MB-435.
Assay [6] deals with SNB-19 CNS.
For assay [7], the system named is IGROV1 ovarian.
In assay [8] the test system is OVCAR-4 ovarian.
In assay [9] the test system is NCI/ADR-RES ovarian.
The subject of assay [10] is MDA-MB-231 breast.
Assay [11] deals with OVCAR-8 ovarian.

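Cells were grown in 96-well plates and exposed to each compound for 48 hours at five concentrations; endpoints were interpolated linearly between bracketing concentrations, or set to the highest concentration if not reached. TGI: total growth inhibition.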 Where only a bound is given, the exact number is not on record here.

On to `O=C(O)C1=CN(c2ccncc2)C(c2ccco2)=CC1c1ccccc1[N+](=O)[O-]` (configuration not stated), for which the TGI in assay [1] is 36.3 µM; in assay [2] it was 4.15 µM; in [3], 38.3 µM; in assay [4] it was 14 µM; in assay [5], above 57.6 µM; in assay [6], 27.8 µM. For the same compound, the TGI is 5.98 µM in assay [7]; 28.2 µM in [8]; above 69.8 µM in [9]; 30.6 µM in assay [10]; 54.8 µM in assay [11].
Consider `O=c1oc2ccc3ccccc3c2cc1-c1cn2c(n1)sc1ccccc12`, for which the TGI in assay [1] is above 100 µM; in assay [2] it was above 100 µM; in assay [3] it was above 100 µM; in assay [4], 14 µM; in [5], above 100 µM; in [6], above 100 µM. In addition, the TGI in assay [7], in assay [8], in assay [9], in assay [10] and in assay [11] was above 100 µM in each case.
With `CCC(c1ccc(OC)cc1)C1NC(=S)NC1=O` (configuration not stated), the TGI in assay [1], in assay [2], in assay [3], in [4], in assay [5] and in assay [6] was above 50 µM throughout. The TGI in [7], in assay [8], in assay [9], in assay [10] and in assay [11] was above 50 µM each time.
For the compound `O=C(/C=C/c1ccc(O)c(O)c1)NC(COC(=O)/C=C/c1ccc(O)c(O)c1)C(=O)O` (configuration not stated), the TGI in assay [1], in [2], in [3], in assay [4], in assay [5] and in [6] was above 100 µM each time. Also, the TGI in assay [7], in [8], in [9], in assay [10] and in assay [11] was above 100 µM each time.
As to `COc1ccccc1N1C(=O)CSC1c1cc(OC)c(OC)c(OC)c1` (configuration not stated), the TGI is above 100 µM in [1]; above 100 µM in assay [2]; above 100 µM in [3]; above 100 µM in assay [4]; 40 µM in assay [5]; above 20.8 µM in assay [6]. Also, the TGI in [7], in assay [8], in [9], in [10] and in assay [11] was above 100 µM throughout.
For `COc1ccc(NS(=O)c2c(C)cc(C)cc2C)cc1` (configuration not stated), the TGI in assay [1], in [2], in [3], in assay [4], in assay [5] and in assay [6] was above 100 µM in each case. The TGI in assay [7], in assay [8], in assay [9], in assay [10] and in [11] was above 100 µM each time.
In the case of `COC(=O)[C@]1(C)CCC[C@]2(C)[C@@H](CCC(=O)C(C)C)[C@]3(C=O)O[C@@H]3C[C@H]21`, the TGI is above 100 µM in assay [1]; above 100 µM in assay [2]; above 100 µM in [3]; above 100 µM in assay [4]; 99.6 µM in assay [5]; above 100 µM in [6]. Also, the TGI in assay [8] was 87.3 µM; in [9] it was 90.4 µM; in assay [10], above 100 µM; in assay [11], above 100 µM.
In the case of `CC1(C)SCc2nc3ccccc3n21`, the TGI in assay [1], in [2], in assay [3], in [4], in assay [5] and in [6] was above 100 µM throughout. The TGI in assay [7], in [8], in [9], in assay [10] and in assay [11] was above 100 µM each time.
Turning to `CO[C@H]1O[C@@H]2OC3(C)CCC4[C@H](C)CCC([C@H]1C)[C@]42OO3` (some centres not stated), the TGI in [1], in assay [2], in assay [3], in assay [4], in [5] and in [6] was above 100 µM throughout. Also, the TGI in [7], in [8], in assay [9], in assay [10] and in assay [11] was above 100 µM each time.
As to `CCCNCC(O)CNc1ccc(NCC(O)CNCCC)c2c1C(=O)c1ccccc1C2=O` (configuration not stated), the TGI in assay [1] is 8.48 µM; in assay [2], 8.21 µM; in assay [3] it was 6.24 µM; in assay [4], 7.6 µM; in assay [5], 10.5 µM; in assay [6] it was 6.35 µM. Moreover, the TGI in assay [7] is 7.87 µM; in [8], 10.6 µM; in [9], above 75 µM; in [10], 10.1 µM; in assay [11] it was 8.51 µM.
As to `O=c1nc2c(c(-c3ccc(F)cc3)[nH]1)COC/C2=C\c1ccc(F)cc1`, the TGI in assay [1], in assay [2], in [3], in assay [4], in [5] and in assay [6] was above 100 µM in each case. In addition, the TGI in assay [7], in [8], in [9], in assay [10] and in assay [11] was above 100 µM in each case.
As for `COC(=O)c1ccc(C)cc1C1CN=NC12Cc1cc(C)ccc1C2=O` (configuration not stated), the TGI in assay [1] was above 65.4 µM; in [2], above 92.6 µM; in assay [3], 88 µM; in assay [4], above 86.6 µM; in assay [5], 6.12 µM; in assay [6] it was above 100 µM. In addition, the TGI in assay [7] is above 100 µM; in [8] it was 98.7 µM; in [9] it was 47.5 µM; in assay [10], 64.9 µM; in assay [11] it was above 100 µM.
Take `COc1cc2c(cc1O)Cc1c-2[n+](C)cc2cc(OC)c(OC)cc12`: the TGI is above 100 µM in assay [1]; above 44.7 µM in assay [2]; above 100 µM in [3]; above 39.4 µM in assay [4]; above 100 µM in [5]; above 50 µM in assay [6]. The TGI in assay [7], in assay [8], in [9], in assay [10] and in [11] was above 100 µM in each case.

(Values after PubChem BioAssay (NCI).)
